Data: patent US11976072B2, “Diacylglycerol kinase modulating compounds” (priority 2021, dated 2024)

Assays:
[1] = system: Jurkat NFκB-luciferase cells; assay: Jurkat NFκB-Luciferase Assay; format: cell-based; details: Homo sapiens; Jurkat NFκB-luciferase cells activated with anti-CD3 antibody (OKT3), 2.5 hrs at 37° C.; geometric mean; read-out: DGK NFKb Luciferase EC50
Method: The day after, the excess antibody was washed out five times with 100 ul/well of assay medium (RPMI supplemented with 10% fetal bovine serum) using a Biotek EL406 instrument and leaving 20 ul of residual volume in each well. Jurkat NFκB-luciferase cells (Promega #) were harvested and diluted to 1 million cells/ml in assay medium. […] Thirty microliters of medium containing the Jurkat NFκB-luciferase cells were then dispensed using a Biotek MicroFlo instrument in each well of the compound-containing plate. […] Forty microliters of One-Glo Ex (Promega) was then added to the assay mixture and luciferase activity was read on a Envision plate reader 7 minutes later.

human DGKα = human DGKα (Homo sapiens, UniProt P23743); assay: DGKα Biochemical Activity Assay (ADP-Glo); details: recombinant DGKα 1 nM, 100 μM ATP, 18:1 DAG/POPS/octylglucoside micelles, 1 hour at 25° C.; geometric mean; read-out: HTBS DGKa 1X ATP KM IC50;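 further: luminescent detection of ADP produced as DGKα phosphorylates DAG to phosphatidic acid, IC50 from four-parameter nonlinear curve fit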
Chain of human DGKα (P23743 whole entry): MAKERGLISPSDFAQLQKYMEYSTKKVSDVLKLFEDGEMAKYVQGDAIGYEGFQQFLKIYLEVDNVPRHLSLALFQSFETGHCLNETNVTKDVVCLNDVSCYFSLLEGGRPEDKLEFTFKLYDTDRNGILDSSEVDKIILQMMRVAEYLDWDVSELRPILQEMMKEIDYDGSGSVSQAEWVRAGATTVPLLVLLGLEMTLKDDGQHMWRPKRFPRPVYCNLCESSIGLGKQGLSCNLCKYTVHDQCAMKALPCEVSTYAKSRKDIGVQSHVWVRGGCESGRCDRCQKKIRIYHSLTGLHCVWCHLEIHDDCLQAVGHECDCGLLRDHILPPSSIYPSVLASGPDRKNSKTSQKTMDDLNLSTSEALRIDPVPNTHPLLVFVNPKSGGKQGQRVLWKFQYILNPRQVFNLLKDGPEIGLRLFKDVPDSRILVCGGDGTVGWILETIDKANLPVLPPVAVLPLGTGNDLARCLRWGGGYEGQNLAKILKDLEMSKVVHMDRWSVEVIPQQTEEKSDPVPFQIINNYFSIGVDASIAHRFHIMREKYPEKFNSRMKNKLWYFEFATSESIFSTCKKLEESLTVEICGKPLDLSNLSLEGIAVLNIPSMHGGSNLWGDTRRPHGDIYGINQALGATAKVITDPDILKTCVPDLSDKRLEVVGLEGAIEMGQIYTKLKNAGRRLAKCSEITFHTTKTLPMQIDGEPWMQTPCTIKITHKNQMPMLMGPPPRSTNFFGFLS

SMILES | EC50 [1] [nM] | IC50 (human DGKα) [nM]
Cc1nnc2nc(N(CC(F)F)c3cc(F)cc(C#CC(C)(C)c4cccnc4)c3)c3c(F)c(F)ccc3n12 [Example 67, N-(2,2-difluoroethyl)-6,7-difluoro-N-(3-fluoro-5-(3-methyl-3-(pyridin-3-yl)but-1-yn-1-yl)phenyl)-1-methyl-[1,2,4]triazolo[4,3-a]quinazolin-5-amine] | 11.6 | 156
Cc1nnc2nc(N3CCOCc4c(C#CC(C)(C)NC(=O)C(C)(C)C(F)(F)F)cccc43)c3c(F)cccc3n12 [Example 144, 3,3,3-trifluoro-N-(4-(1-(6-fluoro-1-methyl-[1,2,4]triazolo[4,3-a]quinazolin-5-yl)-1,2,3,5-tetrahydrobenzo[e][1,4]oxazepin-6-yl)-2-methylbut-3-yn-2-yl)-2,2-dimethylpropanamide] | 11.1 | 4.73
Fc1ccc2c(c(N3CCCc4c(C#CC5(C(F)F)CC5)cncc43)nc3nncn32)c1F [Example 15, 5-(5-((1-(difluoromethyl)cyclopropyl)ethynyl)-3,4-dihydro-1,7-naphthyridin-1(2H)-yl)-6,7-difluoro-[1,2,4]triazolo[4,3-a]quinazoline] | 1.91 | 7.16
Cc1nnc2nc(N3CCOCc4c(C#CC(C)(C)NS(=O)(=O)C5(C(F)F)CC5)cccc43)c3c(F)cccc3n12 [Example 178, 1-(Difluoromethyl)-N-[3-[1-(6-fluoro-1-methyl-[1,2,4]triazolo[4,3-a]quinazolin-5-yl)-3,5-dihydro-2H-4,1-benzoxazepin-6-yl]-1,1-dimethyl-prop-2-ynyl]cyclopropanesulfonamide] | 10.2 | 44.9
Cc1nnc2nc(N3CCCc4c(N5CCC(F)(F)CC5)cccc43)c3c(F)cccc3n12 [Example 157, 5-[5-(4,4-difluoro-1-piperidyl)-3,4-dihydro-2H-quinolin-1-yl]-6-fluoro-1-methyl-[1,2,4]triazolo[4,3-a]quinazoline] | 8.23 | 672
Cc1nnc2nc(N3CCOCc4c(C#CC(C)(C)C(C)(F)F)cccc43)c3c(F)cccc3n12 [Example 187, 6-(4,4-Difluoro-3,3-dimethyl-pent-1-ynyl)-1-(6-fluoro-1-methyl-[1,2,4]triazolo[4,3-a]quinazolin-5-yl)-3,5-dihydro-2H-4,1-benzoxazepine] | 1.45 | 12.3
Cc1nnc2nc(N3CCCOc4c(C#CC5CC5)cncc43)c3c(F)c(F)ccc3n12 [Example 167, 9-(2-cyclopropylethynyl)-5-(6,7-difluoro-1-methyl-[1,2,4]triazolo[4,3-a]quinazolin-5-yl)-3,4-dihydro-2H-pyrido[4,3-b][1,4]oxazepine] | 5.84 | 18
CCC(O)C#Cc1cc(F)cc(N(CC(F)F)c2nc3nnc(C)n3c3ccc(F)c(F)c23)c1 (centres unmarked) [Example 239, 1-[3-[2,2-difluoroethyl-(6,7-difluoro-1-methyl-[1,2,4]triazolo[4,3-a]quinazolin-5-yl)amino]-5-fluoro-phenyl]pent-1-yn-3-ol] | 31.6 | 24.8
Cc1nnc2nc(N(CC(F)F)c3cc(F)cc(-c4ccc(C(C)(C)O)cc4)c3)c3c(F)cccc3n12 [Example 128, 2-(3′-((2,2-difluoroethyl)(6-fluoro-1-methyl-[1,2,4]triazolo[4,3-a]quinazolin-5-yl)amino)-5′-fluoro-[1,1′-biphenyl]-4-yl)propan-2-ol] | 7.48 | 20.8
Cc1nnc2nc(N(CC(F)F)c3cc(F)cc(C#CC(C)(C)C#N)c3)c3cc(F)ccc3n12 [Example 245, 4-[3-[2,2-difluoroethyl-(7-fluoro-1-methyl-[1,2,4]triazolo[4,3-a]quinazolin-5-yl)amino]-5-fluoro-phenyl]-2,2-dimethyl-but-3-ynenitrile] | 6.75 | 21.2
Cc1nc(C(C)(C)C#Cc2cccc3c2CCCN3c2nc3nnc(C)n3c3cccc(F)c23)oc1C [Example 77, 2-(4-(1-(6-fluoro-1-methyl-[1,2,4]triazolo[4,3-a]quinazolin-5-yl)-1,2,3,4-tetrahydroquinolin-5-yl)-2-methylbut-3-yn-2-yl)-4,5-dimethyloxazole] | 1.94 | 15.5
Cc1nnc2nc(N3CCOCc4c(C#CC(C)(C)C(=O)NC(C)(C)C(F)(F)F)cccc43)c3c(F)c(F)ccc3n12 [Example 63, 4-(1-(6,7-difluoro-1-methyl-[1,2,4]triazolo[4,3-a]quinazolin-5-yl)-1,2,3,5-tetrahydrobenzo[e][1,4]oxazepin-6-yl)-2,2-dimethyl-N-(1,1,1-trifluoro-2-methylpropan-2-yl)but-3-ynamide] | 4.17 | 19.4
CC(C)(C#N)C#Cc1cccc2c1CCCN2c1nc2nncn2c2ccc(F)c(F)c12 [Example 242, 4-[1-(6,7-difluoro-[1,2,4]triazolo[4,3-a]quinazolin-5-yl)-3,4-dihydro-2H-quinolin-5-yl]-2,2-dimethyl-but-3-ynenitrile] | 1.94 | 3.75
Fc1cccc2c1c(N1CCCc3c(C#CC4CCC4)cncc31)nc1nncn12 [Example 18, 5-(5-(cyclobutylethynyl)-3,4-dihydro-1,7-naphthyridin-1(2H)-yl)-6-fluoro-[1,2,4]triazolo[4,3-a]quinazoline] | 1.5 | 14.2
Cc1nnc2nc(N3CCOCc4c(C#CC(C)(C)C(=O)NC5(C(F)(F)F)CC5)cccc43)c3c(F)c(F)ccc3n12 [Example 64, 4-(1-(6,7-difluoro-1-methyl-[1,2,4]triazolo[4,3-a]quinazolin-5-yl)-1,2,3,5-tetrahydrobenzo[e][1,4]oxazepin-6-yl)-2,2-dimethyl-N-(1-(trifluoromethyl)cyclopropyl)but-3-ynamide] | 7.43 | 9.97
Cc1nnc2nc(N3CCOCc4c(C#CC5(C)CC5)cccc43)c3c(F)c(F)ccc3n12 [Example 196, 1-(6,7-Difluoro-1-methyl-[1,2,4]triazolo[4,3-a]quinazolin-5-yl)-6-((1-methylcyclopropyl)ethynyl)-1,2,3,5-tetrahydrobenzo[e][1,4]oxazepine] | 0.545 | 2.49
CC(C)(C#N)C#Cc1cccc2c1CCCN2c1nc2nncn2c2cccc(F)c12 [Example 243, 4-[1-(6-fluoro-[1,2,4]triazolo[4,3-a]quinazolin-5-yl)-3,4-dihydro-2H-quinolin-5-yl]-2,2-dimethyl-but-3-ynenitrile] | 2.33 | 3.14
Fc1ccc2c(c(N3CCOCc4c(C#CC5(C(F)(F)F)CC5)cccc43)nc3nncn32)c1F [Example 203, 1-(6,7-Difluoro-[1,2,4]triazolo[4,3-a]quinazolin-5-yl)-6-[2-[1-(trifluoromethyl)cyclopropyl]ethynyl]-3,5-dihydro-2H-4,1-benzoxazepine] | 0.307 | 2.1
Cc1nnc2nc(N3CCN(C)Cc4c(C#CC(C)(C)C(F)(F)F)cccc43)c3c(F)cccc3n12 [Example 162, 6-fluoro-1-methyl-5-[4-methyl-6-(4,4,4-trifluoro-3,3-dimethyl-but-1-ynyl)-3,5-dihydro-2H-1,4-benzodiazepin-1-yl]-[1,2,4]triazolo[4,3-a]quinazoline] | 3.33 | 15
CC(C)(C#Cc1cccc2c1COCCN2c1nc2nncn2c2c(Cl)ccc(F)c12)C(F)F [Example 41, 1-(9-chloro-6-fluoro-[1,2,4]triazolo[4,3-a]quinazolin-5-yl)-6-(4,4-difluoro-3,3-dimethyl-but-1-ynyl)-3,5-dihydro-2H-4,1-benzoxazepine] | 1.39 | 11
Cc1nnc2nc(N(CC(F)F)c3cc(F)cc(C#CC4COC4)c3)c3c(F)cccc3n12 [Example 23, N-(2,2-difluoroethyl)-6-fluoro-N-(3-fluoro-5-(oxetan-3-ylethynyl)phenyl)-1-methyl-[1,2,4]triazolo[4,3-a]quinazolin-5-amine] | 3.46 | 33.9
Cc1nnc2nc(N(CC(F)F)c3cc(F)cc(C#Cc4cnn(C)c4)c3)c3c(F)c(F)ccc3n12 [Example 227, N-(2,2-difluoroethyl)-6,7-difluoro-N-[3-fluoro-5-[2-(1-methylpyrazol-4-yl)ethynyl]phenyl]-1-methyl-[1,2,4]triazolo[4,3-a]quinazolin-5-amine] | 9.73 | 29.3
CC(C)(C#Cc1nccc(N(CC(F)F)c2nc3nncn3c3ccc(F)cc23)c1F)C(F)(F)F [Example 97, N-(2,2-difluoroethyl)-7-fluoro-N-(3-fluoro-2-(4,4,4-trifluoro-3,3-dimethylbut-1-yn-1-yl)pyridin-4-yl)-[1,2,4]triazolo[4,3-a]quinazolin-5-amine] | 3.9 | 18
Cc1nnc2nc(N3CCCc4c(C#CC5(C(F)F)CC5)cccc43)c3c(Cl)cccc3n12 [Example 126, 6-chloro-5-(5-((1-(difluoromethyl)cyclopropyl)ethynyl)-3,4-dihydroquinolin-1(2H)-yl)-1-methyl-[1,2,4]triazolo[4,3-a]quinazoline] | 1.16 | 17.2
Cc1nnc2nc(N3CCOCc4c(C#CC(C)(C)NC(=O)C5(C(F)(F)F)CC5)cccc43)c3c(F)cccc3n12 [Example 147, N-(4-(1-(6-fluoro-1-methyl-[1,2,4]triazolo[4,3-a]quinazolin-5-yl)-1,2,3,5-tetrahydrobenzo[e][1,4]oxazepin-6-yl)-2-methylbut-3-yn-2-yl)-1-(trifluoromethyl) cyclopropane-1-carboxamide] | 7.74 | 3.16
